Tested on: ERK1/2 and pERK1/2 (pT202/pY204) in bone marrow
Experiment: MPL^W515L MF mouse model: ERK1/2 and pERK1/2 immunoblot of bone marrow
Assay type: in vivo
Settings: MPL^W515L mice, oral 400 mg kg^−1 daily, 28 d
Protocol: Generation of the MPL^W515L mutant MF mouse model was similar to previously described methods. Briefly, female donor BALB/c mice were treated with 5-fluorouracil at 150 mg kg^−1 intraperitoneal for 5 d before harvesting bone marrow. Hematopoietic stem and progenitor cells were enriched with CD117 magnetic beads (Miltenyi Biotec), transduced with retrovirus containing MSCV-hMPL W515L-IRES-GFP, then 50,000 transduced HSPCs along with 300,000 total non-stem cells were injected intravenously into lethally irradiated female BALB/c recipients. Development of MF was evaluated by spleen volumes using MRI beginning ~14 d following bone marrow transplantation (BMT) as outlined below, continuing weekly until end of the study. Mice were separated into equal groups based on spleen size ~14–21 d post-BMT, then treated with vehicle (Maisine CC) or LP-182 at 400 mg kg^−1 daily by oral gavage for 14–28 d or until mice were euthanized using guidelines for end stage illness and humane endpoints. Untreated healthy control animals were used for experimental comparisons. […] Soluble protein extracts were isolated by centrifugation at 15,000 x g for 15 min at 4 °C, quantified using Micro BCA protein assay (Thermo Scientific), then mixed with reducing 6X SDS-PAGE loading dye, heated for 8 min at 95 °C, and stored at −20 °C until immuno-blot analysis. […]

## O=C(NOCCOCCOCCOCCC(=O)N1CCN(c2cnc3ccc(-c4cnc(Cl)c(NS(=O)(=O)c5ccc(F)cc5)c4)cc3n2)CC1)c1ccc(F)c(F)c1Nc1ccc(I)cc1F [LP-182, N-(2-(2-(2-(3-(4-(7-(6-chloro-5-((4-fluorophenyl)sulfonamido)pyridin-3-yl)quinoxalin-2-yl)piperazin-1-yl)-3-oxopropoxy)ethoxy)ethoxy)ethoxy)-3,4-difluoro-2-((2-fluoro-4-iodophenyl)amino)benzamide]
  levels and activation of ERK1/2 in bone marrow: attenuate downstream MPL^W515L signal transduction

— PMC9386018, “A lymphatic-absorbed multi-targeted kinase inhibitor for myelofibrosis therapy” (Nature Communications, 2022)
